Where a name gives a salt, the structure may show the parent alone.
System: Acinetobacter baumannii ATCC 17961
Experiment: Antimicrobial susceptibility testing: 90% growth inhibitory concentration (IC90) determination
Assay type: cell-based
Settings: ATCC17961, Acinetobacter baumannii ATCC 17961, Iso-Sensitest broth, read-out: ATCC 17961 IC90
In short: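 Broth microdilution in Iso-Sensitest medium, twofold series (e.g. 50 to 0.097 μM final), ~5×10^5 CFU/ml inoculum, 35±2 °C. OD600 read every 20 min over 16 h. IC90 derived from growth inhibition during logarithmic phase.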

IC90 [nM] | Compound
468 | Cn1c(-c2cn(CC#N)nc2C(F)(F)F)cnc1C(=O)Nc1ccc(C(=O)N2CCN(C(=O)C3(O)CCNCC3)CC2)c(Cl)c1 [Example 60, N-[3-Chloro-4-[4-(4-hydroxypiperidine-4-carbonyl)piperazine-1-carbonyl]phenyl]-5-[1-(cyanomethyl)-3-(trifluoromethyl)pyrazol-4-yl]-1-methyl-imidazole-2-carboxamide; Formic Acid]
506 | Cn1c(-c2cn(CC#N)nc2C(F)(F)F)cnc1C(=O)Nc1ccc(C(=O)N2CCN(C(=O)C3CCNCC3)CC2)c(Cl)c1 [Example 61, N-[3-Chloro-4-[4-(piperidine-4-carbonyl)piperazine-1-carbonyl]phenyl]-5-[1-(cyanomethyl)-3-(trifluoromethyl)pyrazol-4-yl]-1-methyl-imidazole-2-carboxamide Formate]
517 | Cn1c(-c2cn(Cc3cccnc3)nc2C(F)(F)F)cnc1C(=O)Nc1ccc(C(=O)N2CCN(C(=O)[C@H]3C[C@H](N)C3)CC2)c(Cl)c1 [Example 63, rac-N-(4-(4-((1r,3r)-3-aminocyclobutane-1-carbonyl)piperazine-1-carbonyl)-3-chlorophenyl)-1-methyl-5-(1-(pyridin-3-ylmethyl)-3-(trifluoromethyl)-1H-pyrazol-4-yl)-1H-imidazole-2-carboxamide trihydrochloride]
4660 | Cn1c(-c2cn(Cc3cccnc3)nc2C(F)(F)F)cnc1C(=O)Nc1ccc(C(=O)N2CCN(C(=O)[C@H]3CC[C@@H](N)C3)CC2)c(Cl)c1 [Example 64, N-(4-(4-((1S,3R)-3-aminocyclopentane-1-carbonyl)piperazine-1-carbonyl)-3-chlorophenyl)-1-methyl-5-(1-(pyridin-3-ylmethyl)-3-(trifluoromethyl)-1H-pyrazol-4-yl)-1H-imidazole-2-carboxamide trihydrochloride]
216 | C[C@H](N)C(=O)N1CCN(C(=O)c2ccc(NC(=O)c3ncc(-c4cn(CC#N)nc4C(F)(F)F)n3C)cc2Cl)CC1 [Example 71, N-[4-[4-[(2S)-2-aminopropanoyl]piperazine-1-carbonyl]-3-chlorophenyl]-5-[1-(cyanomethyl)-3-(trifluoromethyl)pyrazol-4-yl]-1-methylimidazole-2-carboxamide;2,2,2-trifluoroacetic acid]
2260 | Cn1c(-c2cn(CC#N)nc2C(F)(F)F)cnc1C(=O)Nc1ccc(C(=O)N2CCN(C(=O)C3(O)CCCNC3)CC2)c(Cl)c1 (centres unmarked) [Example 72, N-[3-chloro-4-[4-(3-hydroxypiperidine-3-carbonyl)piperazine-1-carbonyl]phenyl]-5-[1-(cyanomethyl)-3-(trifluoromethyl)pyrazol-4-yl]-1-methylimidazole-2-carboxamide;2,2,2-trifluoroacetic acid]
2550 | Cn1c(-c2cn(CC#N)nc2C(F)(F)F)cnc1C(=O)Nc1ccc(C(=O)N2CCN(C(=O)[C@H]3C[C@@H](N)C3)CC2)c(Cl)c1 [Example 73, N-[4-[4-(3-aminocyclobutanecarbonyl)piperazine-1-carbonyl]-3-chlorophenyl]-5-[1-(cyanomethyl)-3-(trifluoromethyl)pyrazol-4-yl]-1-methylimidazole-2-carboxamide;2,2,2-trifluoroacetic acid]
347 | Cn1c(-c2cn(CCF)nc2C(F)(F)F)cnc1C(=O)Nc1ccc(C(=O)N2CCN(C(=O)[C@H]3C[C@@H](N)C3)CC2)c(Cl)c1 [Example 74, N-[4-[4-(3-aminocyclobutanecarbonyl)piperazine-1-carbonyl]-3-chlorophenyl]-5-[1-(2-fluoroethyl)-3-(trifluoromethyl)pyrazol-4-yl]-1-methylimidazole-2-carboxamide;hydrochloride]
247 | C#CCn1cc(-c2cnc(C(=O)Nc3ccc(C(=O)N4CCN(C(=O)NCCNC)CC4)c(Cl)c3)n2C)c(C(F)(F)F)n1 [Example 76, 4-[2-chloro-4-[[1-methyl-5-[1-prop-2-ynyl-3-(trifluoromethyl)pyrazol-4-yl]imidazole-2-carbonyl]amino]benzoyl]-N-[2-(methylamino)ethyl]piperazine-1-carboxamide]
257 | C#CCn1cc(-c2cnc(C(=O)Nc3ccc(C(=O)N4CCN(C(=O)N5CCNCC5)CC4)c(Cl)c3)n2C)c(C(F)(F)F)n1 [Example 77, N-[3-chloro-4-[4-(piperazine-1-carbonyl)piperazine-1-carbonyl]phenyl]-1-methyl-5-[1-prop-2-ynyl-3-(trifluoromethyl)pyrazol-4-yl]imidazole-2-carboxamide]
109 | C#CCn1cc(-c2cnc(C(=O)Nc3ccc(C(=O)N4CCN(C(=O)N[C@H]5C[C@@H](N)C5)CC4)c(Cl)c3)n2C)c(C(F)(F)F)n1 [Example 78, N-(3-aminocyclobutyl)-4-[2-chloro-4-[[1-methyl-5-[1-prop-2-ynyl-3-(trifluoromethyl)pyrazol-4-yl]imidazole-2-carbonyl]amino]benzoyl]piperazine-1-carboxamide]
131 | C#CCn1cc(-c2cnc(C(=O)Nc3ccc(C(=O)N4CCN(C(=O)N5CC[C@@H](N)C5)CC4)c(Cl)c3)n2C)c(C(F)(F)F)n1 [Example 79, N-[4-[4-[(3R)-3-aminopyrrolidine-1-carbonyl]piperazine-1-carbonyl]-3-chlorophenyl]-1-methyl-5-[1-prop-2-ynyl-3-(trifluoromethyl)pyrazol-4-yl]imidazole-2-carboxamide]

The next lines start with the compound.

Compound | IC90 [nM]
CCc1cc(NC(=O)c2ncc(-c3cn(C)nc3C(F)(F)F)n2C)ccc1C(=O)NCCOCCN [Example 57, N-(4-((2-(2-aminoethoxy)ethyl)carbamoyl)-3-ethylphenyl)-1-methyl-5-(1-methyl-3-(trifluoromethyl)-1H-pyrazol-4-yl)-1H-imidazole-2-carboxamide hydrochloride] | 4150
CN(C)CC(=O)N1CCN(S(=O)(=O)c2ccc(NC(=O)c3ncc(-c4c[nH]nc4C(F)(F)F)n3C)cc2Cl)CC1 [Example 58, N-(3-Chloro-4-((4-(dimethylglycyl)piperazin-1-yl)sulfonyl)phenyl)-1-methyl-5-(3-(trifluoromethyl)-1H-pyrazol-4-yl)-1H-imidazole-2-carboxamide] | 952
Cn1c(-c2c[nH]nc2C(F)(F)F)cnc1C(=O)Nc1ccc(S(=O)(=O)N2CCN(C(=O)[C@@H]3C[C@@H](O)CN3)CC2)c(Cl)c1 [Example 59, N-(3-Chloro-4-((4-((2S,4R)-4-hydroxypyrrolidine-2-carbonyl)piperazin-1-yl)sulfonyl)phenyl)-1-methyl-5-(3-(trifluoromethyl)-1H-pyrazol-4-yl)-1H-imidazole-2-carboxamide Hydrochloride] | 823
C[C@H](N)C(=O)N1CCN(C(=O)c2ccc(NC(=O)c3ncc(-c4cn(Cc5cccnc5)nc4C(F)(F)F)n3C)cc2Cl)CC1 [Example 62, N-[4-[4-[(2S)-2-Aminopropanoyl]piperazine-1-carbonyl]-3-chlorophenyl]-1-methyl-5-[1-(pyridin-3-ylmethyl)-3-(trifluoromethyl)pyrazol-4-yl]imidazole-2-carboxamide trihydrochloride] | 834
Cn1c(-c2c[nH]nc2-c2ccccc2)cnc1C(=O)Nc1ccc(C(=O)N2CCN(C(=O)C3CCNCC3)CC2)c(Cl)c1 [Example 66, N-[3-chloro-4-[4-(piperidine-4-carbonyl)piperazine-1-carbonyl]phenyl]-1-methyl-5-(3-phenyl-1H-pyrazol-4-yl)imidazole-2-carboxamide] | 825
Cn1c(-c2cn(Cc3cccnc3)nc2C(F)(F)F)cnc1C(=O)Nc1ccc(C(=O)N2CCNCC2)c(Cl)c1 [Example 67, N-[3-chloro-4-(piperazine-1-carbonyl)phenyl]-1-methyl-5-[1-(pyridin-3-ylmethyl)-3-(trifluoromethyl)pyrazol-4-yl]imidazole-2-carboxamide;hydrochloride] | 1440
Cn1c(-c2cn(CCF)nc2C(F)(F)F)cnc1C(=O)Nc1ccc(C(=O)N2CCNCC2)c(Cl)c1 [Example 68, N-[3-chloro-4-(piperazine-1-carbonyl)phenyl]-5-[1-(2-fluoroethyl)-3-(trifluoromethyl)pyrazol-4-yl]-1-methylimidazole-2-carboxamide;hydrochloride] | 489
Cn1c(-c2cn(CC#N)nc2C(F)(F)F)cnc1C(=O)Nc1ccc(C(=O)N2CCNCC2)c(Cl)c1 [Example 69, N-[3-chloro-4-(piperazine-1-carbonyl)phenyl]-5-[1-(cyanomethyl)-3-(trifluoromethyl)pyrazol-4-yl]-1-methylimidazole-2-carboxamide;2,2,2-trifluoroacetic acid] | 309
Cn1c(-c2cn(Cc3cccnc3)nc2C(F)(F)F)cnc1C(=O)Nc1ccc(C(=O)N2CCN(C(=O)[C@H]3CCNC3)CC2)c(Cl)c1 [Example 70, N-[3-chloro-4-[4-[(3S)-pyrrolidine-3-carbonyl]piperazine-1-carbonyl]phenyl]-1-methyl-5-[1-(pyridin-3-ylmethyl)-3-(trifluoromethyl)pyrazol-4-yl]imidazole-2-carboxamide] | 497
Cn1c(-c2cn(Cc3cccnc3)nc2C(F)(F)F)cnc1C(=O)Nc1ccc(C(=O)N2CCN(C(=O)C3(O)CCCNC3)CC2)c(Cl)c1 (centres unmarked) [Example 75, N-[3-chloro-4-[4-(3-hydroxypiperidine-3-carbonyl)piperazine-1-carbonyl]phenyl]-1-methyl-5-[1-(pyridin-3-ylmethyl)-3-(trifluoromethyl)pyrazol-4-yl]imidazole-2-carboxamide;hydrochloride] | 542

Same assay, conditions: Acinetobacter baumannii, ATCC17961, read-out: ATCC 17961 IC90, Acinetobacter baumannii ATCC 17961, Iso-Sensitest broth

Compound | IC90 [nM]
C=C=Cn1cc(-c2cnc(C(=O)Nc3ccc(C(=O)N4CCN(C(=O)C5CCNCC5)CC4)c(Cl)c3)n2C)c(C(F)(F)F)n1 [Example 65, N-[3-chloro-4-[4-(piperidine-4-carbonyl)piperazine-1-carbonyl]phenyl]-1-methyl-5-[1-propa-1,2-dienyl-3-(trifluoromethyl)pyrazol-4-yl]imidazole-2-carboxamide; Hydrochloride] | 260
